Columns and labels:
Type in all cases: cell-based, human
[1] = tested on: Panc01; experiment: IMAB362-mediated ADCC assay; details: at least 2 donors
[2] = tested on: Panc02.03; experiment: IMAB362-mediated ADCC assay; details: at least 2 donors
[3] = tested on: HPAFII; experiment: IMAB362-mediated ADCC assay; details: at least 2 donors
[4] = tested on: Panc03.27; experiment: IMAB362-mediated ADCC assay; details: at least 2 donors
[5] = tested on: LVT pancreatic cancer cell lines; experiment: IMAB362-mediated ADCC assay, LVT pancreatic cancer cell lines and corresponding parental cell lines; details: for ADCC EC50 / ADCC Max. lysis: at least 2 donors
Protocol: For ADCC assays pancreatic cancer cell lines were transiently transfected with luciferase RNA. This luciferase RNA (pST1-luc2mut-2 hBgUTR-A121-EciI vector (pST1-109)) was produced with an ARCA cap and dissolved in H2O. RNA was stored in 22 μl aliquots at −80° C. For all pancreas cell lines the optimal electroporation conditions were determined resulting in highest transfection rates and viability of the cells. In each assay cells were detached with PBS/5 mM EDTA and 2.5×10^6 cells dissolved in 250 μl X-Vivo were mixed in ice-cold cuvettes with 10 μg RNA. Cells were immediately electroporated (GenePulser Xcell, Biorad) and resuspended in pre-warmed Assay-medium adjusting the cells to 5×10^5 cells/ml. Tested electroporation conditions were for all cell lines: • EP1: 250 V, 475 μF • EP2: 200 V, 300 μF • EP3: 150 V, 300 μF • EP4: 200 V, 400 μF • EP5: 250 V, 950 μF • Control: 0 V, 0 μF
The viability of the cells was determined directly after electroporation using CASY or by staining cells with Trypan blue and determining the percentage of dead cells in the Neubauer chamber. Cells were seeded in quadruplicates in white 96-well plates (2.5×10^4 cells/well) and incubated for 24 h. Subsequently, luciferase activity was measured in a luminometer (Tecan Infinite200) after addition of luciferin mix for 90 min. Transfection was successful and consequently ADCC measurable, if RLU values >1.000 were obtained.
Pancreatic cancer target cells were seeded two days in advance in flasks to obtain 80-90% confluent cultures on the day ADCC started. […] NUGC-4 sub 10cH11 subE10 Luci #2 cells (8000 cells/well) were seeded in addition as positive controls in all assays. Cells were cultivated for 4-6 h before addition of antibody and purified PBMCs. PBMCs were prepared from fresh human buffy coat obtained from healthy donors. About 3× 20-25 ml blood was diluted (1:2) with PBS and carefully layered on 4×15 ml Ficol-Paque Plus (GE Healthcare) in 50 ml Falcon tubes. Gradients were centrifuged (25 min, 700 g). After centrifugation, peripheral blood mononuclear cells (PBMC) were collected from the interphase, washed in PBS/2 mM EDTA, centrifuged (5 min, 468 g), again resuspended in PBS/2 mM EDTA and centrifuged (10 min, 208 g) to remove the platelets. The pellets were resuspended in 50 ml PBS/2 mM EDTA and cells were counted. PBMCs were centrifuged (5 min, 468 g) and resuspended in X-Vivo-15 culture medium at a concentration of 1.6×10^7 cells/ml for addition to the pancreas cells and 1.28×10^7 cells/ml for addition to the NUGC-4 sub 10cH11 subE10 Luci #2 cells.
Of each dilution 25 μl was added in quadruplicates to the target cells. PBS without antibodies was added in the medium and lysis control wells. Subsequently, 25 μl PBMCs were added to each well (E:T ratio=40:1) and plates were incubated for 24 h±1 h at 37° C., 5% CO2.
The next day, 10 μl 8% Triton X100/PBS solution was added to the lysis control wells and 10 μl PBS in all other wells. Finally, 50 μl freshly prepared luciferin stock solution was added (160 mM HEPES, 1×PBS, 3.84 mg/ml D-Luciferin (BD Biosciences)) to each well and plates were incubated for 80 min at RT in the dark. Luminescence resulting from the oxidation of […] by the luciferase of viable cells was measured using a microplate-reader (Infinite200, Tecan, Switzerland). Percentage of cellular cytotoxicity was calculated using the following formula: Specific killing (%)=100−[(RLUsample−RLUtriton)/(RLUmedium ctrl−RLUtriton)×100]
ADCC analyses were also performed with LVT pancreatic cancer cell lines and their corresponding parental cell lines (FIG. 22B-F).

[6] = tested on: BxPC3-CLDN18; experiment: IMAB362 mediated apoptosis of gemcitabine treated pancreas tumor cells; details: BxPC3-CLDN18, medium or 100 ng/ml gemcitabine, after 48 hours
Protocol: BxPC3-CLDN18 were cultivated in medium or medium+100 ng/ml gemcitabine. Apoptotic cell fraction of […] were shifted. Similar shifts were obtained by incubation of tumor cells with Camptotecin.
Following the indicated treatments, apoptosis was measured by annexin V binding (detection kit I) or by a DNA fragmentation assay (Apo-Direct) as recommended by the manufacturer (PharMingen, San Diego, Calif.). Briefly, cells floating in the supernatant were combined with the adherent fraction, which was trypsinized and then washed. An aliquot of 5 E+05 cells was incubated with annexin V-APC and PI for 15 min at room temperature in the dark. Cells were immediately analyzed by flow cytometry. Viable cells exclude both annexin V-APC and PI. Early apoptotic cells are annexin V-APC-positive and PI-negative, whereas cells that are no longer viable due to apoptotic or necrotic cell death are positively stained by both annexin V and PI. Percentage of stained cells in each quadrant was quantified using FlowJo software (BD Biosciences, Franklin Lakes, N.J.).
The apoptotic assay based on DNA fragmentation was performed as follows. Treated cells (adherent and floating) were fixed in 70% icecold EtOH overnight. […] Cells were rinsed, incubated in RNase A/propidium iodide in the dark for 30 min at room temperature to stain total DNA, then analyzed by flowvcytometry. […]

Substance: IMAB362: chimeric IgG1 antibody directed against CLDN18.2, developed by Ganymed Pharmaceuticals AG
- ADCC EC50 [1]: n.m.
- ADCC Max. lysis [1]: 0-4.5%
- ADCC EC50 [2]: n.m.
- ADCC Max. lysis [2]: n.m.
- ADCC EC50 [3]: n.m.
- ADCC Max. lysis [3]: n.m.
- ADCC EC50 [4]: n.m.
- ADCC Max. lysis [4]: n.m.
- ADCC EC50 ([5]; BxPC3 (ATCC)): n.m.
- ADCC Max. lysis ([5]; BxPC3 (ATCC)): n.m.
- ADCC EC50 ([5]; BxPC3 (ECACC)): n.m.
- ADCC EC50 ([5]; BxPC3 LVT): 0.0477 ± 0.0191 µg/mL
- ADCC Max. lysis ([5]; BxPC3 LVT): 90.6 ± 6.4%
- ADCC EC50 ([5]; CAPAN1-LVT): 0.06503 ± 0.0351 µg/mL
- ADCC Max. lysis ([5]; CAPAN1-LVT): 92.6 ± 5.5%
- ADCC EC50 ([5]; CAPAN1): n.m.
- ADCC Max. lysis ([5]; CAPAN1): n.m.
- ADCC EC50 ([5]; DANG-LVT): 0.0523 ± 0.0277 µg/mL
- ADCC Max. lysis ([5]; DANG-LVT): 85.9 ± 11.7%
- ADCC EC50 ([5]; HPAC-LVT): 0.1168 ± 0.1054 µg/mL
- ADCC Max. lysis ([5]; HPAC-LVT): 76.2 ± 19.4%
- ADCC Max. lysis ([5]; HPAC): 0-22.2%
- target dependence of ADCC ([5]; LVT cell lines versus CLDN18.2 negative parental cell lines): only CLDN18.2 positive target cells are killed
- ADCC killing ([5]; LVT pancreas CA cell lines): killed upon addition of small amounts of antibody at high rates
- ADCC EC50 ([5]; MiaPaCa2-LVT): 0.0234 ± 0.0123 µg/mL
- ADCC Max. lysis ([5]; MiaPaCa2-LVT): 78.1 ± 6.0%
- ADCC EC50 ([5]; MiaPaCa2): n.m.
- ADCC EC50 ([5]; Patu8902-LVT): 0.0492 ± 0.0862 µg/mL
- ADCC Max. lysis ([5]; Patu8902-LVT): 74.1 ± 16.4%
- ADCC EC50 ([5]; Patu8902): n.m.
- ADCC EC50 ([5]; Suit2-LVT): 0.0732 ± 0.0147 µg/mL
- ADCC Max. lysis ([5]; Suit2-LVT): 81.2 ± 7.6%
- ADCC EC50 ([5]; Suit2): n.m.
- ADCC Max. lysis ([5]; Suit2): n.m.
- ADCC EC50 ([5]; YAPC-LVT): 0.0295 ± 0.0157 µg/mL
- ADCC Max. lysis ([5]; YAPC-LVT): 91.5 ± 6.3%
- ADCC EC50 ([5]; YPAC): n.m.
- ADCC Max. lysis ([5]; YPAC): n.m.
- induction of apoptosis [6]: Apoptosis induced by cross-linking
